One assay concerns the target T1, RON tyrosine kinase (Homo sapiens, UniProt Q04912).
T1 construct: purchased Carna Bioscience
In words: Enzyme inhibitory activity against RON tyrosine kinase (TR-FRET). The conditions noted are these: RON (Carna Bioscience). The format is biochemical. A digest of the protocol:
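Recombinant RON was preincubated with compound for 15 min at RT in 50 mM HEPES pH 7.5, 10 mM MgCl2, 1 mM EGTA, 2 mM DTT, 0.01% Tween-20. Enzyme (0.4 nM), ATP (60 μM) and tyrosine peptide (400 nM) were prepared at 2×, 4× and 4× final. After 60 min at RT, EDTA/Eu-anti-phosphotyrosine stop; IC50 from 665 nm TR-FRET emission.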

The test system of assay [1] is cancer cell line SW620, in which mutated RON (Δ155) is expressed. In words: Cell-killing efficacy in RON-mutated cancer cell line SW620 (trypan blue). Format: cell-based. Here is the method: Experimental Example 4: Measurement of Cell-Killing Efficacy of Example Compounds in RON-Mutated Cancer Cell Lines
Each of two colorectal cancer cell lines, that is, the cancer cell line HT29 (30038, KCLB, RPMI+10% FBS), in which mutated RON (Δ160) is expressed, and the cancer cell line SW620 (CCL-227, ATCC, RPMI+10% FBS), in which mutated RON (Δ155) is expressed, was dispensed into each 60 mm^2 dish at 1×10^5 cells. After 24 hours, the dish was treated with each of the example compounds at a concentration of 1 μM or 5 μM while performing medium exchange, and then reaction was allowed to proceed for 48 hours. After 48 hours, centrifugation was performed for 4 minutes at 1,500 rpm to collect cells and cell fluid. Thereafter, living cells and dead cells were quantified (n=2) using a trypan blue solution (15250-061, Gibco), and statistical analysis was performed using Excel-T-test. Here, as a negative control, only a solvent (0.10% DMSO) was used; and as a positive control, N-(4-(2-amino-3-chloropyridin-4-yloxy)-3-fluorophenyl)-4-ethoxy-1-(4-fluorophenyl)-2-oxo-1,2-dihydropyridine-3-carboxamide, which is the compound of Example 1 in WO 2008/058229 A1, was used.

Assay [2] relates to cancer cell line HT29, in which mutated RON (Δ160) is expressed. In words: Cell-killing efficacy in RON-mutated cancer cell line HT29 (trypan blue). Format: cell-based.
Assay [3] relates to cancer cell line KM12C, in which RON is activated. In words: Cell growth inhibitory ability in RON-activated cancer cell line (MTS). The conditions noted are these: Homo sapiens, 48 hours, absorbance 490 nm. The format is cell-based. A digest of the protocol:
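KM12C cells (RON-activated, MEM with FBS) exposed to compound […] for 48 h. MTS added 24 h after treatment ended, incubated 4 h at 37° C, absorbance read at 490 nm. IC50 derived from absorbance.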

The test system is the same in assay [4]. In words: Cell-killing efficacy in RON-activated cancer cell line (trypan blue). The format is cell-based. A digest of the protocol:
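KM12C cells seeded 1×10^5 per 60 mm^2 dish in MEM + 10% FBS, then exposed 24 h later to compound at 1 μM or 5 μM for 48 h.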

T1 sequence (Q04912 25-1400): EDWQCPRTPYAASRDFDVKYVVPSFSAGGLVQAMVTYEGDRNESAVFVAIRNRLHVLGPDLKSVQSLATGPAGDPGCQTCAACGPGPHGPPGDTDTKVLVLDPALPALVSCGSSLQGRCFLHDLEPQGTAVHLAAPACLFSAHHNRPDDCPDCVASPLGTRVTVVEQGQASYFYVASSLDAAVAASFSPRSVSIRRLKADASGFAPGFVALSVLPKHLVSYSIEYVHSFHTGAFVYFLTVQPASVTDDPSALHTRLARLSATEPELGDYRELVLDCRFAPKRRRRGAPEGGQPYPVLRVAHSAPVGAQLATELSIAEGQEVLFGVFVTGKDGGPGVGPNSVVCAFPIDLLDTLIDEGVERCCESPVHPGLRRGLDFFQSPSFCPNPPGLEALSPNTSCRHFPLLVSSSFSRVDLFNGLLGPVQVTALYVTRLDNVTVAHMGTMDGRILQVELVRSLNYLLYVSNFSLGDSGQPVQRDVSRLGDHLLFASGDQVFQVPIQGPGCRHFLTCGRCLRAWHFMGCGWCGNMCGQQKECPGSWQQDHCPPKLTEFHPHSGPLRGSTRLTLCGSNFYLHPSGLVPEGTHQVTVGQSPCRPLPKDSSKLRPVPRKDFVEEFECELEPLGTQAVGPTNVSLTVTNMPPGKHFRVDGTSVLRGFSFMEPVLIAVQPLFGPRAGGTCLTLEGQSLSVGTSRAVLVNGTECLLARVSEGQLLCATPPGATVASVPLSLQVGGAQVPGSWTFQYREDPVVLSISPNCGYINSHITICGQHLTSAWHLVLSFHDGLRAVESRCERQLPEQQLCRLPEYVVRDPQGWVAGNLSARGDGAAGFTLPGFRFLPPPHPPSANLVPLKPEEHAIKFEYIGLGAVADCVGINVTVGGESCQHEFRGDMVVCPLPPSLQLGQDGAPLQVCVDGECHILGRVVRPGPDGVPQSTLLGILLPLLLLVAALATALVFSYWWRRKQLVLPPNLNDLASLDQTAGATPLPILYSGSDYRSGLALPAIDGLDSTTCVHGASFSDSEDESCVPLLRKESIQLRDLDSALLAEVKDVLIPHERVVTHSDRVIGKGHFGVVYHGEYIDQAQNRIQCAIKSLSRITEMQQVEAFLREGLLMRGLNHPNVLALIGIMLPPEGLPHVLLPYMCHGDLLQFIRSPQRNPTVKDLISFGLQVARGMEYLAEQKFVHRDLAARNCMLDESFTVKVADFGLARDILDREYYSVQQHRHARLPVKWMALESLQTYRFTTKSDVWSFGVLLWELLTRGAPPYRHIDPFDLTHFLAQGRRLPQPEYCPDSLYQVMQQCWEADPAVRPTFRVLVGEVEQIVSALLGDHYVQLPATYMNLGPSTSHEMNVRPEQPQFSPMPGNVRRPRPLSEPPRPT

As to `COc1cc2c(Oc3ccc(NC(=O)c4c5c(cn(-c6ccc(F)cc6)c4=O)CCO5)cc3F)ccnc2cc1NCCCN1CCOCC1` [Example 188, N-(3-Fluoro-4-((6-methoxy-7-((3-morpholinopropyl)amino)quinolin-4-yl)oxy)phenyl)-5-(4-fluorophenyl)-6-oxo-2,3,5,6-tetrahydrofuro[3,2-c]pyridine-7-carboxamide], the half-maximal inhibitory concentration (IC50) against RON tyrosine kinase was 3.23 nM; in assay [3], 8 nM. Further, the cytotoxicity at 1 µM in assay [1] (Homo sapiens, SW-620, 1 μM, 48 hours, trypan blue, n=2, read-out: Cell death (%) Cancer cell line SW620) stood at 26.9%; in assay [2] (Homo sapiens, HT-29, 1 μM, 48 hours, trypan blue, n=2, read-out: Cell death (%) Cancer cell line HT29), 28.7%; in assay [4] (Homo sapiens, 1 μM, 48 hours, trypan blue, n=2, read-out: Cell death (%) Cancer cell line KM12C) it was 25.4%. The cytotoxicity at 5 µM was determined as 31.6% in assay [1] (Homo sapiens, SW-620, 5 μM, 48 hours, trypan blue, n=2, read-out: Cell death (%) Cancer cell line SW620); 94.4% in assay [2] (Homo sapiens, HT-29, 5 μM, 48 hours, trypan blue, n=2, read-out: Cell death (%) Cancer cell line HT29); 57.3% in assay [4] (Homo sapiens, 5 μM, 48 hours, trypan blue, n=2, read-out: Cell death (%) Cancer cell line KM12C). The “cell-killing effect (in words)” value in assay [1] (SW620, as compared with the positive control) is “high cell-killing effect”; in assay [2] (HT29, as compared with the positive control), “high cell-killing effect”; in assay [4] (as compared with the positive control), “high cell-killing effect”.

Source of the values: US20220235064A1 (WELLMARKER BIO CO., LTD., priority 2019, published 2022).
